Test results as given in US20240116985A1, “STAPLED PEPTIDES AND METHODS THEREOF” (priority 2020, published 2024).
pIC50: −log10 of the molar value. Converted amounts (≈) assume the structure as drawn. Read-outs that look alike come from different tables or passages of the source.

Assays:
[1] = target: T1, full-length beta-Catenin (Uniprot ID P35222) (Homo sapiens, UniProt P35222); assay: Fluorescence polarization IC50 (beta-catenin / 5FAM-TCF4 10-53 competition); format: binding
T1 construct: 10 nM full-length beta-Catenin (Uniprot ID P35222)
T1 sequence (P35222 1-781): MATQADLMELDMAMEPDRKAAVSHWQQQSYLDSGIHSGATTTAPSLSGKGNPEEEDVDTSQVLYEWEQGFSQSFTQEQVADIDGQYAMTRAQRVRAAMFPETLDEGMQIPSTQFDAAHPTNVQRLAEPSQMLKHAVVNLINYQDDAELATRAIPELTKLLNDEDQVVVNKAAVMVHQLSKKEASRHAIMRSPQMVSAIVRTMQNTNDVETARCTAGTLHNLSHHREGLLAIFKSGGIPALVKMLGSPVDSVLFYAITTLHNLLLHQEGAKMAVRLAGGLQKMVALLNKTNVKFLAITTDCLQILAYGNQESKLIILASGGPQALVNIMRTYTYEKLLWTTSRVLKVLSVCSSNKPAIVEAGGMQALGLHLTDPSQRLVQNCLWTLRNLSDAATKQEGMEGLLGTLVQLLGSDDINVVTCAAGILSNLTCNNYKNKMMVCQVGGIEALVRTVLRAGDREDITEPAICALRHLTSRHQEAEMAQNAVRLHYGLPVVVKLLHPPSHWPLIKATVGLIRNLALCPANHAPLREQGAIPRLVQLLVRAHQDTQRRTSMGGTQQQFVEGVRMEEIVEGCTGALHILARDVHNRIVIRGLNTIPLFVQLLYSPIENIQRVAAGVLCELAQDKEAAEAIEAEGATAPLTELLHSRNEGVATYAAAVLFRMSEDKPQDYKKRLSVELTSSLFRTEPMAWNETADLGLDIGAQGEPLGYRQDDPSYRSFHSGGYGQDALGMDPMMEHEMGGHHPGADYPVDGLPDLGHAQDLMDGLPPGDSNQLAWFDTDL

CHI Log D procedure = format: physicochemical; conditions: for chromatographic logD: pH 7.4, CHI Log D; for CHI Log D: pH 7.4
Solubility in PBS = format: physicochemical
Procedure, shortened: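 Steps: ultracentrifuge the peptide PBS solution, inject the supernatant on HPLC, inject a 50 μM peptide DMSO solution as reference, then calculate solubility as area ratio (PBS/DMSO) × 50 uM.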

[2] = target: T2, beta-catenin/TCF4 engagement (Homo sapiens, UniProt P35222); assay: Nano-BRET target engagement assay (B-cat-Halo & TCF4-Luc in HEK293 cells); format: cell-based; conditions: for pIC50: read-out: NanoBRET Abs IC50
T2 construct: expressed in transfected cells; host or cells: HEK293
T2 sequence (P35222 1-781): T1 sequence (P35222 1-781)

[3] = fluorescence polarization, read-out: beta-Catenin FP IC50

Compound | pIC50 [1, 3] | chromatographic logD (CHI Log D procedure) | Solubility (Solubility in PBS; Solubility (uM)) [µM] | pIC50 ([2]; absolute IC50) | pIC50 ([1]; read-out: beta-Catenin FP IC50) | pIC50 [2] | pIC50 ([1]; read-out: FP EC50) | CHI Log D (CHI Log D procedure) | Solubility (Solubility in PBS) [µM] | inhibition at 10 µM ([2]; HEK293, @ 10 uM, read-out: NanoBRET % inh @ 10 uM) [%]
CC(=O)N1CCC[C@]12CC=CCCCC1(CCCC=CCCCCCC[C@@](C)(C(=O)N[C@@H](Cc3ccccc3)C(=O)N[C@@H](Cc3csc4ccccc34)C(=O)N[C@@H](CCC(N)=O)C(N)=O)NC(=O)[C@H](CC(N)=O)NC(=O)[C@H](Cc3ccccc3)NC(=O)[C@H](C)NC(=O)[C@H](C)NC(=O)[C@H](CCC(=O)O)NC(=O)[C@H](CC(=O)O)NC1=O)NC(=O)[C@H](CC(C)(C)C)NC(=O)[C@H](CC(=O)O)NC2=O (stereo partly drawn) [I-677, Ac-PL3-Asp-Npg-B5-Asp-Glu-Ala-Ala-Phe-Asn-S8-Phe-BztA-Gln-NH2] | 7.66 | 2.45 | 49 (≈ 92.3 µg/mL) | 5.17 | – | – | – | – | – | –
CC(=O)N1CCC[C@]12CC=CCCCC1(CCCC=CCCCOC(=O)N3CC[C@@](C(=O)N[C@@H](Cc4ccsc4)C(=O)N[C@@H](Cc4csc5ccccc45)C(=O)N[C@@H](CCC(N)=O)C(N)=O)(C3)NC(=O)[C@H](CC(N)=O)NC(=O)[C@H](Cc3ccccc3)NC(=O)[C@H](CCCCNC(=O)C34CC5(C)CC(C)(CC(C)(C5)C3)C4)NC(=O)[C@H](C)NC(=O)[C@H](CC(=O)O)NC(=O)[C@H](CC(=O)O)NC1=O)NC(=O)[C@H](CC(C)(C)C)NC(=O)[C@H](CC(=O)O)NC2=O (stereo partly drawn) [I-900, Ac-PL3-Asp-Npg-B5-Asp-Asp-Ala-[Me3AdamantC]Lys-Phe-Asn-PyrS2-3Thi-BztA-Gln-NH2] | – | 2.74 | 41 (≈ 89.4 µg/mL) | – | 7.48 | < 4.70 | – | – | – | –
CC(=O)N1CCC[C@]12CC=CCCCC1(CCCC=CCCCOC(=O)N3CC[C@@](C(=O)N[C@@H](Cc4ccsc4)C(=O)N[C@@H](Cc4csc5ccccc45)C(=O)N[C@@H](CCC(N)=O)C(N)=O)(C3)NC(=O)[C@H](CC(N)=O)NC(=O)[C@H](Cc3ccccc3)NC(=O)[C@H](C)NC(=O)[C@H](C)NC(=O)[C@H](CCC(=O)O)NC(=O)[C@H](CC(=O)O)NC1=O)NC(=O)[C@H](CC(C)(C)C)NC(=O)[C@H](CC(=O)O)NC2=O (stereo partly drawn) [I-691, Ac-PL3-Asp-Npg-B5-Asp-Glu-Ala-Ala-Phe-Asn-PyrS2-3Thi-BztA-Gln-NH2] | 8.05 | – | – | 4.77 | – | – | 8.05 | 2.068 | 45 (≈ 86.9 µg/mL) | –
CC[C@H](C)[C@@H]1NC(=O)[C@H](CC(=O)O)NC(=O)[C@]2(CC=CCCCC3(CCCC=CCCCCCC[C@@](C)(C(=O)N[C@@H](Cc4ccccc4OC)C(=O)N[C@@H](Cc4csc5ccccc45)C(=O)N[C@@H](CCC(N)=O)C(N)=O)NC(=O)[C@H](CC(N)=O)NC(=O)[C@H](Cc4ccccc4)NC(=O)[C@H](C)NC(=O)[C@H](C)NC(=O)[C@H](CC(=O)O)NC(=O)[C@H](CC(=O)O)NC3=O)NC1=O)CCCN2C(C)=O (stereo partly drawn) [I-550, Ac-PL3-Asp-Ile-B5-Asp-Asp-Ala-Ala-Phe-Asn-S8-2OMeF-BztA-Gln-NH2] | 7.52 | – | – | 4.67 | – | – | 7.52 | 2.343 | 50 (≈ 94.3 µg/mL) | –
CC(=O)N1CCC[C@]12CC=CCCCC1(CCCC=CCCCOC(=O)N3CC[C@@](C(=O)N[C@@H](Cc4ccsc4)C(=O)N[C@@H](Cc4ccc5ccccc5c4)C(=O)N[C@@H](Cc4c[nH]cn4)C(N)=O)(C3)NC(=O)[C@H](CC(N)=O)NC(=O)[C@H](Cc3ccccc3)NC(=O)[C@H](C)NC(=O)[C@H](C)NC(=O)[C@H](CC(=O)O)NC(=O)[C@H](CC(=O)O)NC1=O)NC(=O)[C@H](CC(C)(C)C)NC(=O)[C@H](CC(=O)O)NC2=O (stereo partly drawn) [I-790, Ac-PL3-Asp-Npg-B5-Asp-Asp-Ala-Ala-Phe-Asn-PyrS2-3Thi-2NapA-His-NH2] | – | 2.12 | – | – | 7.62 | < 4.70 | – | – | 50 (≈ 96.1 µg/mL) | –
CC(=O)N1CCC[C@]12CC=CCCCC1(CCCC=CCCCCCC[C@@](C)(C(=O)N[C@@H](Cc3ccccc3)C(=O)N[C@@H](Cc3csc4ccccc34)C(=O)N[C@@H](CCC(N)=O)C(N)=O)NC(=O)[C@H](CC(N)=O)NC(=O)[C@H](Cc3ccccc3)NC(=O)[C@H](C)NC(=O)[C@H](C)NC(=O)[C@H](CC(=O)O)NC(=O)[C@H](CC(=O)O)NC1=O)NC(=O)[C@H](C(C)C)NC(=O)[C@H](CC(=O)O)NC2=O (stereo partly drawn) [I-567, Ac-PL3-Asp-Val-B5-Asp-Asp-Ala-Ala-Phe-Asn-S8-Phe-BztA-Gln-NH2] | 7.43 | – | – | – | – | – | 7.43 | 2.243 | 50 (≈ 92.1 µg/mL) | 8.9

More lines, now with the values ahead:

pIC50 [1, 3] | chromatographic logD (CHI Log D procedure) | Solubility (Solubility in PBS; Solubility (uM)) [µM] | pIC50 ([2]; absolute IC50) | pIC50 ([1]; read-out: beta-Catenin FP IC50) | pIC50 [2] | pIC50 ([1]; read-out: FP EC50) | CHI Log D (CHI Log D procedure) | Solubility (Solubility in PBS) [µM] | inhibition at 10 µM ([2]; HEK293, @ 10 uM, read-out: NanoBRET % inh @ 10 uM) [%] | Compound
– | 2.5 | 32 (≈ 62.8 µg/mL) | – | 7.55 | 4.61 | – | – | – | – | CC(=O)N1CCC[C@]12CC=CCCCC1(CCCC=CCCCOC(=O)N3CC[C@@](C(=O)N[C@@H](Cc4ccccc4Cl)C(=O)N[C@@H](Cc4csc5ccccc45)C(=O)N[C@@H](CO)C(N)=O)(C3)NC(=O)[C@H]([C@@H](C)O)NC(=O)[C@H](Cc3ccccc3)NC(=O)[C@H](C)NC(=O)[C@H](C)NC(=O)[C@H](CC(=O)O)NC(=O)[C@H](CC(=O)O)NC1=O)NC(=O)[C@H](Cc1ccc3ccccc3c1)NC(=O)[C@H](CC(=O)O)NC2=O (stereo partly drawn) [I-1115, Ac-PL3-Asp-2NapA-B5-Asp-Asp-Ala-Ala-Phe-Thr-PyrS2-2C1F-BztA-Ser-NH2]
– | 2.5 | 34 (≈ 64.8 µg/mL) | – | 8.00 | 5.07 | – | – | – | – | CC(=O)N1CCC[C@]12CC=CCCCC1(CCCC=CCCCOC(=O)N3CC[C@@](C(=O)N[C@@H](Cc4ccccc4Cl)C(=O)N[C@@H](Cc4csc5ccccc45)C(=O)N[C@@H](C(N)=O)[C@H](C)O)(C3)NC(=O)[C@H]([C@@H](C)O)NC(=O)[C@H](Cc3ccccc3)NC(=O)[C@H](C)NC(=O)[C@H](C)NC(=O)[C@H](CC(=O)O)NC(=O)[C@H](CC(=O)O)NC1=O)NC(=O)[C@H](CC(C)(C)C)NC(=O)[C@H](CC(=O)O)NC2=O (stereo partly drawn) [I-1033, Ac-PL3-Asp-Npg-B5-Asp-Asp-Ala-Ala-Phe-Thr-PyrS2-2ClF-BztA-dThr-NH2]
– | 2.42 | 49 (≈ 97 µg/mL) | – | 7.49 | 4.57 | – | – | – | – | CC(=O)N1CCC[C@]12CC=CCCCC1(CCCC=CCCCOC(=O)N3CC[C@@](C(=O)N[C@@H](Cc4ccccc4)C(=O)N[C@@H](Cc4csc5ccccc45)C(=O)N[C@@H](CCC(N)=O)C(N)=O)(C3)NC(=O)[C@H](CO)NC(=O)[C@H](Cc3ccc(C(F)(F)F)cc3)NC(=O)[C@H](C)NC(=O)[C@H](C)NC(=O)[C@H](CC(=O)O)NC(=O)[C@H](CC(=O)O)NC1=O)NC(=O)[C@H](CC1CCCCC1)NC(=O)[C@H](CC(=O)O)NC2=O (stereo partly drawn) [I-1126, Ac-PL3-Asp-Cha-B5-Asp-Asp-Ala-Ala-4F3MeF-Ser-PyrS2-Phe-BztA-Gln-NH2]
– | 2.18 | 46 (≈ 86.2 µg/mL) | – | 7.82 | 4.78 | – | – | – | – | COc1ccccc1C[C@H](NC(=O)[C@]12CCN(C1)C(=O)OCCCC=CCCCC1(CCCC=CC[C@]3(CCCN3C(C)=O)C(=O)N[C@@H](CC(=O)O)C(=O)N[C@@H](CC(C)(C)C)C(=O)N1)C(=O)N[C@@H](CC(=O)O)C(=O)N[C@@H](CC(=O)O)C(=O)N[C@@H](C)C(=O)N[C@@H](C)C(=O)N[C@@H](Cc1ccccc1)C(=O)N[C@@H](CO)C(=O)N2)C(=O)N[C@@H](Cc1csc2ccccc12)C(=O)N[C@@H](CO)C(N)=O (stereo partly drawn) [I-1103, Ac-PL3-Asp-Npg-B5-Asp-Asp-Ala-Ala-Phe-Ser-PyrS2-2OMeF-BztA-Ser-NH2]
– | 2.19 | 41 (≈ 79.2 µg/mL) | 4.76 | 7.92 | – | – | – | – | – | CC(=O)N1CCC[C@]12CC=CCCCC1(CCCC=CCCCOC(=O)N3CC[C@@](C(=O)N[C@@H](Cc4ccsc4)C(=O)N[C@@H](Cc4csc5ccccc45)C(=O)N[C@@H](CCC(N)=O)C(N)=O)(C3)NC(=O)[C@H](CC(N)=O)NC(=O)[C@H](Cc3ccccc3)NC(=O)[C@H](C)NC(=O)[C@H](C)NC(=O)[C@H](CCC(N)=O)NC(=O)[C@H](CC(=O)O)NC1=O)NC(=O)[C@H](CC(C)(C)C)NC(=O)[C@H](CC(=O)O)NC2=O (stereo partly drawn) [I-838, Ac-PL3-Asp-Npg-B5-Asp-Gln-Ala-Ala-Phe-Asn-PyrS2-3Thi-BztA-Gln-NH2]
– | 2.38 | 48 (≈ 91.2 µg/mL) | – | 8.00 | 4.75 | – | – | – | – | COc1ccccc1C[C@H](NC(=O)[C@]12CCN(C1)C(=O)OCCCC=CCCCC1(CCCC=CC[C@]3(CCCN3C(C)=O)C(=O)N[C@@H](CC(=O)O)C(=O)N[C@@H](CC3CCCCC3)C(=O)N1)C(=O)N[C@@H](CC(=O)O)C(=O)N[C@@H](CC(=O)O)C(=O)N[C@@H](C)C(=O)N[C@@H](C)C(=O)N[C@@H](Cc1ccccc1)C(=O)N[C@@H](CO)C(=O)N2)C(=O)N[C@@H](Cc1csc2ccccc12)C(=O)N[C@@H](CO)C(N)=O (stereo partly drawn) [I-1104, Ac-PL3-Asp-Cha-B5-Asp-Asp-Ala-Ala-Phe-Ser-PyrS2-2OMeF-BztA-Ser-NH2]
